Experimental data from PMC8765310, “Metabolism, Excretion, and Mass Balance of [^14C]-Rezafungin in Animals and Humans” (Antimicrobial Agents and Chemotherapy, 2022).
*1 amine or outer side, *2 acyl side, *3 side chain or, on linkers, in order; H or OH if unused. Where a SMILES comes first, the peptide text is derived from it. Bridges are numbered along the chain shown (N, C = ends). [ ]: non-standard residue; d: D form. The star is where a group is joined. Orn(4R-OH,5R-OCH2CH2NMe3+) = C[N+](C)(C)CCO[C@@H](N[*:3])[C@H](O)C[C@H](N[*:1])C(=O)[*:2]; pTerphenylCO(4''-OnC5H11) = CCCCCOc1ccc(-c2ccc(-c3ccc(C(=O)*)cc3)cc2)cc1; hTyr(3S-OH,4S-OH) = N[C@H](C(=O)O)[C@H](O)[C@@H](O)c1ccc(O)cc1; Pro(3S-OH,4S-Me) = C[C@H]1CN[C@H](C(=O)O)[C@H]1O; Hyp = O=C(O)[C@@H]1C[C@@H](O)CN1

Tests used:
[1] = Clinical safety in the human mass balance study; format: in vivo; details: single IV 400-mg infusion
Protocol: (§1) (i) Study design. This was an open-label, phase I, single-dose mass balance study. The study was conducted at Labcorp (formerly, Covance, Inc.; Madison, WI) in accordance with good clinical practice, including ICH guidelines and applicable regulatory requirements, and in general conformity with the Declaration of Helsinki. No animal work was conducted by Labcorp. All pertinent study documents were reviewed by the Institutional Review Board (IRB) prior to study initiation. Following IRB approval and collection of written informed consent, all the subjects underwent an initial screening assessment within 28 days of the first dose. Safety was assessed by vital signs, physical examinations, AE assessments, laboratory tests (chemistry, hematology, and urinalysis), and a 12-lead electrocardiogram.

[2] = Rat excretion/mass balance of [14C]-rezafungin; format: in vivo, Sprague-Dawley rats; details: LSC; for Radioactivity recovered in feces: mean
Protocol: (§2) (i) Rat study design. The study used 12 male Sprague-Dawley rats, each administered a bolus IV injection into the tail vein over approximately 3–4 min of 15 mg/kg of rezafungin (with a target radioactivity of 200 μCi/kg of [^14C]-rezafungin). Three of the rats were bile duct cannulated. Whole blood/plasma, urine, feces/bile, and cage washings were collected at periodic intervals from noncannulated rats until euthanization at 336 h postdose and from bile duct cannulated rats until euthanization at 120 h postdose as that was the duration that the patency of bile duct cannulae could be maintained. Carcasses were collected at the time of euthanization. All samples were analyzed for drug-derived radioactivity by liquid scintillation counting.
(§3) (iii) Sample analysis. Whole blood and fecal homogenates were combusted prior to analysis by liquid scintillation counting (LSC). Blood, plasma, bile, urine, cage rinse/wash, and fecal homogenate samples were mixed with scintillation fluid and analyzed for radioactivity by LSC. Rat carcasses were dissolved in potassium hydroxide, and the resulting digests were mixed with scintillation fluid and analyzed for radioactivity by LSC.

[3] = Rat blood and plasma radioactivity pharmacokinetics; format: in vivo, Sprague-Dawley rats; details: IV [14C]-rezafungin 15 mg/kg, mean plasma concentrations
Protocol: as §2, §3

[4] = Monkey excretion/mass balance of [14C]-rezafungin; format: in vivo, cynomolgus monkeys
Protocol: (ii) Monkey study design. The study used 3 male cynomolgus monkeys, each administered a single 10 mg/kg IV dose of [^14C]-rezafungin (with a target radioactivity of 100 μCi/kg of [^14C]-rezafungin) by infusion into a saphenous vein over 20 min. Whole blood and plasma samples were collected at each of the following time points: predose, 0.5, 2, 4, 8, 24, 48, 96 120, 144, 168, 240, 480, 720, and 1440 h postdose. Urine, feces, and cage washings were collected at predose (urine/feces only) and daily 24-h collections for 30 days.
as §3

[5] = Human clinical pharmacokinetics (plasma rezafungin, plasma and whole blood total radioactivity); format: in vivo
Protocol: as §1
Subjects were initially confined in the clinical research unit (CRU) for 17 days postdose and returned for two follow-up visits (days 29 and 60). Recovery of radioactivity was estimated by linear interpolation during the period of time subjects were away from the CRU. Blood samples, urine, and feces were collected at specified times over 60 days.
(ii) Sample analysis. Whole blood, plasma, urine, and fecal homogenate samples were mixed with scintillation fluid and analyzed by liquid scintillation counting. For non-radiolabeled rezafungin concentration determination, a bioanalytical method was validated for measuring rezafungin in human plasma that is similar to one previously reported for animal plasma ([16]). Samples were analyzed using a 100 μl aliquot volume and a protein-precipitation extraction procedure followed by liquid chromatography/tandem mass spectrometry (LC-MS/MS) analysis. Chromatography was carried out on a Waters Atlantis HPLC column (dC18, 2.1 × 50 mm, 5 μm) operating under reverse-phase gradient conditions (0.1% formic acid in water/0.1% formic acid in acetonitrile/tetrahydrofuran ramped from 55%/45%/0% to 5%/0%/95%). Rezafungin calibration range was 10.0 ng/ml to 10,000 ng/ml using isotopically-labeled d9-rezafungin as an internal standard. An AB-Sciex API 4000 mass spectrometer was operated in the multiple reaction monitoring mode (parent-to-product ion transition) under optimized conditions for detection of rezafungin (m/z 604.5 to 343.3 Da) and d9-rezafungin (m/z 609.5 to 343.3 Da) positive ions formed by electrospray ionization. Excellent intra- and inter-assay accuracy and precision, as measured by quality control (QC) samples, was obtained during validation. Across the range of QC samples tested (lower limit of quantitation, LLOQ, through the High QC range), the intra-assay accuracy (% bias from nominal) ranged from −1.4% to 7.0% with the intra-assay precision (% coefficient of variation) ranging from 1.6% to 7.4%. Inter-assay accuracy ranged from 0.3% to 4.3% with the inter-assay precision ranging from 2.7% to 5%.
(iv) Metabolite profiling. Plasma samples were pooled across subjects through 672 h postdose to produce inter-subject time point pools. Urine and fecal homogenate samples were pooled by subject across various time points up through 408 and 672 h postdose, respectively. Selected samples of plasma, urine, and feces were profiled for rezafungin and metabolites by HPLC with radiochemical and high-resolution mass spectrometry detection; metabolites were identified by HPLC with known standards and/or by HPLC-MS/MS structure elucidation. Pharmacokinetics were calculated by non-compartmental analysis using Phoenix WinNonlin software (version 6.3/8.1; Pharsight, Mountain View, CA).

[6] = cited from earlier work
Source text: All three of the previously approved echinocandins (caspofungin, micafungin, and anidulafungin) are believed to undergo spontaneous chemical (non-enzymatic) degradation to a ring-opened peptide as their primary clearance mechanism ([18]). […] While protein binding is generally considered a factor in evaluation of half-life, rezafungin and the ...

[7] = bile duct cannulated rats, IV 15 mg/kg, until 120 h postdose, average
[8] = intact rats, IV 15 mg/kg, through 336 h postdose, average
[9] = monkeys, 10 mg/kg IV, through 720 h postdose
[10] = single 400-mg IV infusion, LSC, mean (SD)
[11] = single 400-mg IV infusion, mean (SD)
[12] = single 400-mg IV infusion, median (min, max)

## CCCCCOc1ccc(-c2ccc(-c3ccc(C(=O)N[C@H]4C[C@@H](O)[C@@H](OCC[N+](C)(C)C)NC(=O)[C@@H]5[C@@H](O)[C@@H](C)CN5C(=O)[C@H]([C@@H](C)O)NC(=O)[C@H]([C@H](O)[C@@H](O)c5ccc(O)cc5)NC(=O)[C@@H]5C[C@@H](O)CN5C(=O)[C@H]([C@@H](C)O)NC4=O)cc3)cc2)cc1 [rezafungin] ({pTerphenylCO(4''-OnC5H11)}-[Orn(4R-OH,5R-OCH2CH2NMe3+)]T[Hyp][hTyr(3S-OH,4S-OH)]T[Pro(3S-OH,4S-Me)]; lactam 1-C)
[1]; 9 healthy male subjects
  Treatment-emergent adverse events (TEAEs) reported, total number: 13
[1]; 9 subjects
  Deaths, SAEs: no deaths or other SAEs
  Laboratory assessments, vital signs, ECGs, physical examinations: no clinically relevant treatment-related findings
  Severe TEAEs: no severe TEAEs
[1]; of 9 subjects
  Subjects with diarrhea (most common TEAE): two
[2]; bile duct cannulated rats (n = 3), single IV 15 mg/kg, until 120 h postdose
  Radioactivity recovered in feces: 35 % of the administered dose
[2]; bile duct cannulated rats, IV 15 mg/kg, euthanized at 120 h postdose, average
  Radioactivity recovered in the carcass: 30 % of the administered dose
[2]; bile duct cannulated rats, IV 15 mg/kg, until 120 h postdose
  Average total recovery of radioactivity: 98 % of the administered dose
[2]; [7]
  Radioactivity recovered in bile: 17 % of the administered dose
  Radioactivity recovered in cage residues: 1.2 % of the administered dose
[2]; intact (non-bile duct cannulated) male rats, single IV bolus 15 mg/kg (200 μCi/kg), through 336 h postdose
  Radioactivity recovered in feces: 70 % of the administered dose
[2]; intact rats, IV 15 mg/kg, at 336 h postdose, average
  Radioactivity recovered in the carcass: 7.9 % of the administered dose
[2]; [8]
  Radioactivity recovered in cage residues: 2.5 % of the administered dose
  Radioactivity recovered in urine: 14 % of the administered dose
[3]
  t1/2 of plasma total radioactivity: 54 h
[4]; 3 male monkeys, single 10 mg/kg IV 20-min infusion (100 μCi/kg), at 168 h (1 week) postdose, LSC
  Average total recovery of radioactivity: 47.02 % of the dose
[4]; monkeys, 10 mg/kg IV, at 720 h postdose
  Radioactivity recovered in feces: 60 % of the administered dose
[4]; monkeys, 10 mg/kg IV, through 360 h postdose
  Mean total recovery of radioactivity: 65 % of the dose
[4]; [9]
  Radioactivity recovered in cage residue: 4.3 % of the administered dose
  Radioactivity recovered in urine: 9.7 % of the administered dose
[5]; male, plasma, single 400-mg IV infusion, LC-MS/MS, mean (SD), SD
  Cmax: 18900 ng/mL
[5]; male, plasma, single 400-mg IV infusion, LC-MS/MS, mean (SD), SD, read-out: AUC0-∞, plasma rezafungin
  AUC(0-inf): 2110 µg·h/mL
[5]; male, plasma, single 400-mg IV infusion, apparent volume of distribution, terminal phase, mean (SD), SD, read-out: VZ, plasma rezafungin
  Vd: 88.6 L
[5]; male, plasma, single 400-mg IV infusion, median (min, max)
  Tmax: 1 h
[5]; male, plasma, single 400-mg IV infusion, terminal elimination half-life, mean (SD), SD, read-out: t½, plasma rezafungin (converted)
  half-life: 14.2 days
[5]; plasma, 9 healthy male subjects, single 400-mg IV infusion (200 μCi), LC-MS/MS, arithmetic mean (SD), SD, read-out: AUC0-t, plasma rezafungin
  AUC(0-t): 2050 µg·h/mL
[5]; single 400-mg IV infusion (200 μCi), LSC, mean (SD)
  AUC0-t, plasma total radioactivity: 2600 (163) μg equivalent×hour/ml
[5]; [10]
  AUC0-t, whole blood total radioactivity: 2390 (175) μg equivalent×hour/ml
  AUC0-∞, plasma total radioactivity: 2750 (182) μg equivalent×hour/ml
  AUC0-∞, whole blood total radioactivity: 2450 (200) μg equivalent×hour/ml
  Cmax, plasma total radioactivity: 18.2 (2.28) μg/ml
  Cmax, whole blood total radioactivity: 18.5 (2.24) μg/ml
[5]; [11]
  t½, plasma total radioactivity: 387 (44.8) hours
  t½, whole blood total radioactivity: 408 (39.7) hours
[5]; [12]
  tmax, plasma total radioactivity: 1.00 (1.00, 1.00) hours
  tmax, whole blood total radioactivity: 1.00 (1.00, 1.00) hours
[6]
  Protein binding: 97.4%
